Source: ChEMBL document CHEMBL1201862, “PubChem BioAssay data set” (2004)
The source made the active and inactive calls.

What was measured:
[1] = HEp-2 cell cytotoxicity, dose response, cytotoxicity control for RSV inhibitor project, HTS (AID 2410); type: functional; conditions: human respiratory syncytial virus
[2] = target: T1, Probable nicotinate-nucleotide adenylyltransferase (Staphylococcus aureus (strain N315), UniProt P65502); type: functional, Staphylococcus aureus subsp. aureus N315;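 on IC50 Mean: confirmatory dose-response retesting of NadD inhibitor hits first found in an ultra-high-throughput screen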
T1 sequence (P65502 whole entry): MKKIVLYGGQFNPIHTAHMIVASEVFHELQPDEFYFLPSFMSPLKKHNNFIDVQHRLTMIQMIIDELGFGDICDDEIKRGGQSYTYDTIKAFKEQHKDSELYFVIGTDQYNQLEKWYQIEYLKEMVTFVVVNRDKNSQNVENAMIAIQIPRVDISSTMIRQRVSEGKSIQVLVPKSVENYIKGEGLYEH

Prothrombin = Prothrombin (Homo sapiens, UniProt P00734); test: Thrombin 1536 HTS Dose Response Confirmation. [Related pubchem assays: 1046 (Thrombin 1536 HTS; hits were confirmed in this assay)]; type: functional
[3] = target: T1, Probable nicotinate-nucleotide adenylyltransferase; type: functional, Staphylococcus aureus subsp. aureus N315; conditions: read-out: IC50_Mean
[4] = Luminescence Cell-Based Dose Response HTS to Identify Inhibitors of 5'UTR Stem-Loop Driven Prion Protein mRNA Translation in H4 Neuroglioblastoma Cells. [Related pubchem assays: 1827 (Project Summary), 1813 (Primary HTS)]; type: functional
[5] = MC4R antagonists, dose response, counter-screen for LGR2 antagonist project, cell-based, plate reader, cherry pick (AID 743444); type: functional;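 further: transfected HEK 293 cells stimulated with alpha-MSH peptide; potency of inhibitors of the alpha-MSH evoked signal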
[6] = LGR2 antagonists, dose response, cell-based, HEK293, CRE-luciferase reporter, cherry pick, set 2 (AID 743343); type: functional;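 further: transfected cells were stimulated with diluted bursicon conditioned medium after compound addition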
[7] = inhibitors of SNCA 5'UTR-driven reporter translation, confirmation, H4 neuroglioma cells, luminescence (AID 1988); type: functional, cell-based
[8] = HEK293 cell cytotoxicity, dose response, cytotoxicity control, plate reader, cherry-picked samples (AID 743446); type: functional, cell-based
HEK293 = test: inhibitors of LMP1-driven NF-kB reporter, dose response, cell-based, HEK293, luciferase, cherry-pick (AID 588343); type: functional; conditions: Homo sapiens
[9] = inhibitors of firefly luciferase expression or activity, dose response, H4 neuroglioma cells, luminescence (AID 1990); type: functional, cell-based
[10] = target: Glucose-6-phosphate 1-dehydrogenase (Homo sapiens, UniProt P11413); test: human G6PD enzyme inhibitors, dose response, selectivity assay for P. falciparum G6PD inhibitor project, biochemical, fluorescence (AID 504792); type: functional
Sequence of Glucose-6-phosphate 1-dehydrogenase (P11413 whole entry): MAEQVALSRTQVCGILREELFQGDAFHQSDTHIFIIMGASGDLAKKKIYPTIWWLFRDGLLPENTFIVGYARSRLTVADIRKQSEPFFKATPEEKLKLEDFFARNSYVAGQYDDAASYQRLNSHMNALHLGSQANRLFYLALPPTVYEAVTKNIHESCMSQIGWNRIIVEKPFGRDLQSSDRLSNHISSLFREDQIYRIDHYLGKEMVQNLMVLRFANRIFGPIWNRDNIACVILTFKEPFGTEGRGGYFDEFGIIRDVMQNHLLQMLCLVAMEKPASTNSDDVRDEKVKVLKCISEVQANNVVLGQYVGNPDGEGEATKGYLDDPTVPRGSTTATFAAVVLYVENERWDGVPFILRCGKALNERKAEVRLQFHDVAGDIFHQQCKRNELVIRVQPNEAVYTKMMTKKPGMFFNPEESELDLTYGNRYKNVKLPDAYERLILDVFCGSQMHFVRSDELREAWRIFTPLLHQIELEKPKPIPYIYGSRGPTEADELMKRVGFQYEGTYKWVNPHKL

[11] = target: T2, Apoptotic protease-activating factor 1 (Homo sapiens, UniProt O14727); type: functional
T2 sequence (O14727 whole entry): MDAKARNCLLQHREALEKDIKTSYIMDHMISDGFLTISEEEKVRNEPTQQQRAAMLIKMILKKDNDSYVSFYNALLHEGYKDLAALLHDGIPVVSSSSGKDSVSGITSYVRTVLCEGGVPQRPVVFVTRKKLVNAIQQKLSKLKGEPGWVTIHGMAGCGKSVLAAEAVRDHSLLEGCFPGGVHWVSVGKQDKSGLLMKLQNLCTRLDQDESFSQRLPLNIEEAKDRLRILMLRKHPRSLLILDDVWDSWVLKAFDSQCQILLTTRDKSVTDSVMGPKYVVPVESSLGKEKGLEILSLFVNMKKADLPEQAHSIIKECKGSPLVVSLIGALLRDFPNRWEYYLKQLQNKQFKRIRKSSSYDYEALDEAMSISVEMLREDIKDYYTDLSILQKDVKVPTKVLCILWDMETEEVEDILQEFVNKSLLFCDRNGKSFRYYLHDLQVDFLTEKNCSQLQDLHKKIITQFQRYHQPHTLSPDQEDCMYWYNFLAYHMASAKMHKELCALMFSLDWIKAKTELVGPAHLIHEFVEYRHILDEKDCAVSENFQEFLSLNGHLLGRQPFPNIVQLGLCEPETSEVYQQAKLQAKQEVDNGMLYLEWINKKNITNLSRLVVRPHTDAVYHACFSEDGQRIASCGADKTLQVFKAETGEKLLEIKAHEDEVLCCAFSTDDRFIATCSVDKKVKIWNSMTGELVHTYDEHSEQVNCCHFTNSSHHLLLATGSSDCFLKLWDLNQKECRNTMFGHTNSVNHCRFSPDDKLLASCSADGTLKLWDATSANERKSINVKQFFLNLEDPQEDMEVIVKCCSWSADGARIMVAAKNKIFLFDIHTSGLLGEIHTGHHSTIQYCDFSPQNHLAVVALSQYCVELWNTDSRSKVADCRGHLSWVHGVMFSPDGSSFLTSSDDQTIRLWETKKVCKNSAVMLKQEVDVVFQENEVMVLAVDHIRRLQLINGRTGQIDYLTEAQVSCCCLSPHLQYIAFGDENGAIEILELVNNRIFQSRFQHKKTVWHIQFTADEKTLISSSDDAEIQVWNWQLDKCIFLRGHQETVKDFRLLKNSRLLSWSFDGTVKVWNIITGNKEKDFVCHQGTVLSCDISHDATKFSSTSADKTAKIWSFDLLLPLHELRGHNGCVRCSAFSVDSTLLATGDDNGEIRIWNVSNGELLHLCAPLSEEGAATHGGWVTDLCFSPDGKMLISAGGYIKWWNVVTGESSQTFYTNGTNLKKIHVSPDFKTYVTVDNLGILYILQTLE

[12] = target: T3, Replicative DNA helicase DnaB (Mycobacterium tuberculosis, UniProt P9WMR3); test: DnaB intein splicing inhibitors, dose response, biochemical, cell-free fluorescence (AID 449749); type: functional
T3 sequence (P9WMR3 whole entry): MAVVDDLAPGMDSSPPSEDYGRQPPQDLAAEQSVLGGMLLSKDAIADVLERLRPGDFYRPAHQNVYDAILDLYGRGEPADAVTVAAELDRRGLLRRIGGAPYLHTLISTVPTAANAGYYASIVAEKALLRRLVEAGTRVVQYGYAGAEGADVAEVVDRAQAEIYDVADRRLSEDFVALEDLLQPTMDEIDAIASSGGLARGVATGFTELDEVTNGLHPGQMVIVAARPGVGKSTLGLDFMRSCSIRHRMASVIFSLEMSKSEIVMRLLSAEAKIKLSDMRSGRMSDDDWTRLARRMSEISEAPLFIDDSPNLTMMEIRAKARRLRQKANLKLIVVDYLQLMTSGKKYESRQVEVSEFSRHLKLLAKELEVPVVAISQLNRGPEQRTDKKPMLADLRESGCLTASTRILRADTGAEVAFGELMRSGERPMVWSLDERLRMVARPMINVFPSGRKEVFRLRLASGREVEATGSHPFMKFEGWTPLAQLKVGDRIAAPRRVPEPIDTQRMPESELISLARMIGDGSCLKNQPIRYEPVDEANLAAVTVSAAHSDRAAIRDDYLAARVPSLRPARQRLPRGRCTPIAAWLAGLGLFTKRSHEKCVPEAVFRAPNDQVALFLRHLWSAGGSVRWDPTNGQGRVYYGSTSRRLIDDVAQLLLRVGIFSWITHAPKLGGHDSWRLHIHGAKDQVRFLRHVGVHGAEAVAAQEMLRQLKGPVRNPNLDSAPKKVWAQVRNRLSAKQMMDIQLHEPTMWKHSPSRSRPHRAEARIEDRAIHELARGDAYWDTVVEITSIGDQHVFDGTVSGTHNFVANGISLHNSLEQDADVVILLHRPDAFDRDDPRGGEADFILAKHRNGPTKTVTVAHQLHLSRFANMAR

Protein RecA = target: T4, Protein RecA (Mycobacterium tuberculosis, UniProt P9WHJ3); test: Fluorescence Cell-Free Homogeneous Dose Retest to Identify Inhibitors of RecA-Intein Splicing Activity. [Related pubchem assays (depositor defined):AID2097, AID2223, AID489010, AID492950]; type: functional
T4 sequence (P9WHJ3 whole entry): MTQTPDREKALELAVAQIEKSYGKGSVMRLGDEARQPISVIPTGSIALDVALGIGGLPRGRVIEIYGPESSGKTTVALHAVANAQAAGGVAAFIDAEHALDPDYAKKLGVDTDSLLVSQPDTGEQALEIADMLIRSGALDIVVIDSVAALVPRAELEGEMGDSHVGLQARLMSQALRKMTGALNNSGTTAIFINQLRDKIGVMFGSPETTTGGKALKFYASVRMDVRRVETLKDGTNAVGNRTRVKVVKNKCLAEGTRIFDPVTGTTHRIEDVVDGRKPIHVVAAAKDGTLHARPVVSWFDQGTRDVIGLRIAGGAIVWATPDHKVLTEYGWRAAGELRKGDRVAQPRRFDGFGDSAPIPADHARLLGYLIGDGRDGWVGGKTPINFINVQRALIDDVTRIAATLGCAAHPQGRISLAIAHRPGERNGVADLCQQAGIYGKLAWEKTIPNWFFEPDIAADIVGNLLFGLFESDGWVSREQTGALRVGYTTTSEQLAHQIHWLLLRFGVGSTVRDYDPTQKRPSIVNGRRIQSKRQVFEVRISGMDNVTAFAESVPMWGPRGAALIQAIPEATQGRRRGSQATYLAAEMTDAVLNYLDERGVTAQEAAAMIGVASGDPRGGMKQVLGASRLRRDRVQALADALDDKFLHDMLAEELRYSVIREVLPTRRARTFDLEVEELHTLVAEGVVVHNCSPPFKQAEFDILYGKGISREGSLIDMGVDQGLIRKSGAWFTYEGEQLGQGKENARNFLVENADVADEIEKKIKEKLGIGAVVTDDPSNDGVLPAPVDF

P388/ADR = test: cells; type: functional; conditions: Mus musculus
P388 = test: cells; type: functional; conditions: Mus musculus
SN12K1 = test: cells; type: functional; conditions: Homo sapiens
[13] = target: Disintegrin and metalloproteinase domain-containing protein 17 (Homo sapiens, UniProt P78536); test: exosite inhibitors of ADAM17, dose response, biochemical (AID 743260)
Sequence of Disintegrin and metalloproteinase domain-containing protein 17 (P78536 whole entry, the tested form may be a part): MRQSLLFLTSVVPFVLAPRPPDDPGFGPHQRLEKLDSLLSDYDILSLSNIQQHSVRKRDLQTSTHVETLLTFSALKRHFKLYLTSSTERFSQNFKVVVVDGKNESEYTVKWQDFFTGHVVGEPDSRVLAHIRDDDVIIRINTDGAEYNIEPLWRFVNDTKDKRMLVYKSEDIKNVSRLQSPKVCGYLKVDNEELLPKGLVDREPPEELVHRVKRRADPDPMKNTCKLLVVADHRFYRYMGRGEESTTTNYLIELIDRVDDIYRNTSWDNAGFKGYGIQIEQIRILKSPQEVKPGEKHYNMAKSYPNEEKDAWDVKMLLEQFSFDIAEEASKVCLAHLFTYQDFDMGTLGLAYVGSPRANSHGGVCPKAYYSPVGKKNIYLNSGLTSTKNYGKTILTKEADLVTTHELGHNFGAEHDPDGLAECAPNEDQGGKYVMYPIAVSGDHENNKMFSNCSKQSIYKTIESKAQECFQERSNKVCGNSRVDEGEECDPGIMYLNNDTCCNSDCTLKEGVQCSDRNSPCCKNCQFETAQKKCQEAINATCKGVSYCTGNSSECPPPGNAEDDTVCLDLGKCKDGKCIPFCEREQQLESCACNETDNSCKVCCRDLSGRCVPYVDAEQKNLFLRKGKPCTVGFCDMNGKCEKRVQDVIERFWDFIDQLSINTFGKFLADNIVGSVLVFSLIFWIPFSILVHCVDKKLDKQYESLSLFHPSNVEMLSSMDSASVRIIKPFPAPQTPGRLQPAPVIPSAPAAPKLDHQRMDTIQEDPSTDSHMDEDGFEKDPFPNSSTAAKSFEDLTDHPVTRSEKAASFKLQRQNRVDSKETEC

[14] = target: T5, Heat shock factor protein 1 (Mus musculus, UniProt P38532); test: HSF1 potentiators in luciferase reporter cells, confirmation, cell-based, NIH3T3, luminescence, dose retest (AID 435004); type: functional;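 further: stress induced by proteasome inhibitor MG132 added 30 min after compound; luciferase reporter driven by HSF1 response element in NIH3T3 cells; actives raise luminescence as potentiators of the MG132 stress response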
T5 sequence (P38532 whole entry): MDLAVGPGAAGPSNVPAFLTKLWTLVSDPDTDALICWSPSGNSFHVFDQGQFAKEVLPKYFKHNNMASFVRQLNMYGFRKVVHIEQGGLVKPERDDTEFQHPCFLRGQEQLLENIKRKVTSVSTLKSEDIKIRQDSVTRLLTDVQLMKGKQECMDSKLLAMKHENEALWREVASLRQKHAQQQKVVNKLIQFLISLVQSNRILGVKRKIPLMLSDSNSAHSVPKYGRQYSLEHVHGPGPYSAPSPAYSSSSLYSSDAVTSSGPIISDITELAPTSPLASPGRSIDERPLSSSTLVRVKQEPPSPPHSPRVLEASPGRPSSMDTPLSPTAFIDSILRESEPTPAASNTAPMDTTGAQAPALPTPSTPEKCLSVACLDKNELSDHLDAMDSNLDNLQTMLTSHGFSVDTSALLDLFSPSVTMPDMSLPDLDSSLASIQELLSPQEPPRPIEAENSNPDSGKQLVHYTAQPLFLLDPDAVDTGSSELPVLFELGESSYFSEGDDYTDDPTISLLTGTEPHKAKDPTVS

Cn1c(SCC(=O)N2c3ccccc3CCc3ccccc32)nnc1-c1cc2ccccc2cc1O
CC50 [1]: > 50 µM (active) | IC50 [2]: 7.15 µM (active) | IC50 (Prothrombin): > 50 µM (not active) | IC50 [3]: 24.5 µM (active)

Cc1csc(SCC(=O)NCc2ccccc2Cl)n1
IC50 (Prothrombin): > 50 µM (not active)

Cc1ccc(C(=O)Nc2ccc3c(c2)OCCO3)c(Cl)c1
EC50 [4]: 5.14 µM (active) | AC50 [5]: 3.76 µM (active) | AC50 [6]: 3.65 µM (active) | EC50 [7]: 3.89 µM (active) | AC50 [8]: > 52 µM (inactive) | AC50 (HEK293): 1.27 µM (active) | EC50 [9]: 6.61 µM (inconclusive)

COc1ccc(OCC(=O)Nc2cccc3ncccc23)cc1
IC50 (Prothrombin): > 50 µM (not active)

CC(=O)Nc1ccc(S(=O)(=O)[N-]C2=C(n3cc[n+](-c4ccccn4)c3)C(=O)c3ccccc3C2=O)cc1
IC50 [10]: > 80 µM (inactive) | IC50 [11]: 6.71 µM (active) | AC50 [12]: 3.92 µM (active) | EC50 (Protein RecA): 3.46 µM (active)

CCCNC1=C(C)C(=O)C2=C(C1=O)[C@H](COC(N)=O)[C@]1(OC)[C@@H]3N[C@@H]3CN21
GI50 (P388/ADR): 4.66 µM (inactive) | GI50 (P388): 0.32 µM (active) | GI50 (SN12K1): 4.36 µM (inactive)

Cc1ccc(C(C)(C)C[P+](C)(c2ccccc2)c2ccccc2)cc1
GI50 (P388/ADR): > 100 µM (inactive) | GI50 (P388): 0.508 µM (active) | GI50 (SN12K1): 6.49 µM (inactive)

COc1ccc2c(c1)c1c(C)c3cnccc3c(C)c1n2CCCN
GI50 (P388/ADR): 0.185 µM (active) | GI50 (P388): 0.0505 µM (active) | GI50 (SN12K1): 0.102 µM (active)

CC(=O)Nc1cccc(/N=N/N(C)C)c1
GI50 (P388/ADR): > 100 µM (inactive) | GI50 (P388): > 100 µM (inactive) | GI50 (SN12K1): > 57.5 µM (inactive)

CCCC(O)C(NC(=O)CCl)C(=O)O (configuration not stated)
GI50 (P388/ADR): > 100 µM (inactive) | GI50 (P388): > 100 µM (inactive) | GI50 (SN12K1): > 100 µM (inactive)

CSCCC(NC(=O)C(Cc1ccccc1)NC(=O)CNC(=O)CNC(=O)C(N)Cc1ccc(O)cc1)C(=O)O (configuration not stated)
GI50 (P388/ADR): > 100 µM (inactive) | GI50 (P388): > 100 µM (inactive) | GI50 (SN12K1): > 100 µM (inactive)

COC(=O)c1cccc(Cn2c(Cl)c(/C=N/Nc3ccccc3C)sc2=O)c1
IC50 [13]: > 69.5 µM (inactive) | EC50 [14]: 61.2 µM (active)
